Results taken from publication PMC6332318, “Synthetic Development of New 3-(4-Arylmethylamino)butyl-5-arylidene-rhodanines under Microwave Irradiation and Their Effects on Tumor Cell Lines and against Protein Kinases” (Molecules, 2015).

Tests used:
diploid skin fibroblasts = experiment: in vitro inhibition of cell proliferation / survival assay, normal cells control; assay type: cell-based; conditions: Skin fibroblast, Fibroblasts; for IC50: 48 h, average of three assays, standard error ± 0.5 μM; for viability at 25 µM: measured at 25 μM after 48 h, single dose, triplicate, read-out: % of Survival
Protocol: (§1) As an initial effort to investigate their in vitro bioactivity, the new synthesized 3-(4-arylmethylamino)butyl-2-thioxo-1,3-thiazolidine-4-one 9a–n and also their precursors 6a–f were evaluated for their in vitro inhibition of cell proliferation. For this study, we used a panel of seven representative tumoral cell lines, namely HuH7 D12 (differential hepato cellular carcinoma), Caco 2 (differentiating colorectal adenocarcinoma), MDA-MBD231 ([…]), HCT 116 (actively proliferating colorectal adenocarcinoma), PC3 (prostate carcinoma), NCI-H727 (lung carcinoma), HaCat keratinocyte and, diploid skin fibroblasts as normal cell lines for control.
(§2) Skin diploid fibroblastic cells were provided by BIOPREDIC International Company (Rennes, France). Caco2 (Ref ECACC: 86010202), Huh-7D12 (Ref ECACC: 01042712), MDA-MB-231 (Ref ECACC: 92020424), HCT-116 (Ref ECACC: 91091005), PC3 (Ref ECACC: 90112714), NCI-H727 (Ref ECACC: 94060303) cell lines were obtained from the ECACC collection and HaCaT (from Cell Lines Service, Eppelheim, Germany). Cells were grown according to ECACC recommendations. The toxicity test of the compounds on these cells was as follows: 2 × 10^3 cells for HCT-116 cells or 4 × 10^3 for the other cells were seeded in 96 multiwell plates in triplicate and left for 24 h for attachment, spreading and growing. Then, cells were exposed for 48 h to increasing concentrations of the compounds, ranging from 0.1 to 25 μM in a final volume of 120 μL of culture medium. Cells were fixed in cooled solution of 90% ethanol/5% acetic acid, nuclei were stained with Hoechst 3342 (Sigma) and counted using automated imaging analysis (Cellomics Arrayscan VTI/HCS Reader, Thermo/Scientific, Waltham, MA, USA). The IC50 were graphically determined.

HsCDK5/p25 = biological target: T1, HsCDK5/p25 (Homo sapiens, UniProt Q00535); experiment: protein kinase assay, [γ-33P] ATP; assay type: biochemical
T1 construct: made in house
T1 sequence (Q00535 whole entry): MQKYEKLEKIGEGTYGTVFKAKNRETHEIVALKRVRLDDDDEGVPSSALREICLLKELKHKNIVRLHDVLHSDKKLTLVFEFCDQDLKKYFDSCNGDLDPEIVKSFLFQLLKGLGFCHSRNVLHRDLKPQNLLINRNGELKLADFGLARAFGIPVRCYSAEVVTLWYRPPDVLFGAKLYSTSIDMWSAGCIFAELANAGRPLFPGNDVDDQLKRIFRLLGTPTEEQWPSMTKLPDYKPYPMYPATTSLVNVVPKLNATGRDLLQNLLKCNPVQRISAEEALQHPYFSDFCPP
T1 sequence (Q15078 99-307 partner limits assumed): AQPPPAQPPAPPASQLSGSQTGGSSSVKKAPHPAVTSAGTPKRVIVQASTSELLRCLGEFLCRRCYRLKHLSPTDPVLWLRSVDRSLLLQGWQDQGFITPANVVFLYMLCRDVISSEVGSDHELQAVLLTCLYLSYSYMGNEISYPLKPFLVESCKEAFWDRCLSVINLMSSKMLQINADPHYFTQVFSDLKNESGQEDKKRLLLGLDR
Protocol: (§3) Then, we evaluated the intermediates salts 6a–f and fourteen final compounds 9a–n on four protein kinases: HsCDK5-p25 (cyclin-dependant kinase 5-p25), SsGSK-3α/β (glycogen synthase kinase-3α/β) SsCK1δ/ε (Caseine kinase 1) and HsHaspin as an essential mitotic kinase. All assays were run in the presence of 15 μM of ATP and appropriate substrates. IC50 values were determined from dose-response curves. Concerning the library of the fourteen (5Z) 3-(4-arylmethylamino)butyl-5-arylidene-2-thioxo-1,3-thiazolidine-4-ones 9a–n and also the six diamines salts 6a–f, the results are given in Table 3. […] It is interesting to note that these two compounds are respectively substituted with an hydroxyl function on para-position of the 5-arylidene moiety and also with a similar bulky group (1,3-benzodioxol-5-yl for 9j and 2,3-dihydro-benzo[1,4]dioxin-6-yl for 9n) on the arylmethylamino moiety grafted on the N-3 butyl chain.
(§4) Kinase activities for each enzyme were assayed in buffer A (25 mM Tris-HCl pH 7.5, 10 mM MgCl2, 1 mM EGTA, 1 mM DTT, 50 µg/mL Heparin, BSA 0.15 mg/mL) or B (60 mM β-glycerophosphate, 30 mM p-Nitrophenylphosphate, 25 mM MOPS, 5 mM EGTA, 15 mM MgCl2, 1 mM DTT, 0.1 mM Na vanadate), with their corresponding substrates, in the presence of 15 µM [γ-^33P] ATP (3000 Ci/mmol; 10 mCi/mL) in a final volume of 30 µL. After 30 min incubation at 30 °C, the reaction was stopped by harvesting, using a FilterMate harvester (Packard, Meriden, CT, USA), onto P81 phosphocellulose papers (GE Healthcare, Velizy-Villacoublay, France) which were washed in 1% phosphoric acid. Scintillation fluid was added and the radioactivity measured in a Packard counter. Blank values were subtracted and activities calculated as pmoles of phosphate incorporated during the 30 min incubation. The activities were expressed in a percentage of the maximal activity, i.e., in the absence of inhibitors. Controls were performed with appropriate dilutions of DMSO. CK1 and Haspin peptide substrates were obtained from Proteogenix (Oberhausbergen, France).
CDK5/p25 (human, recombinant) was prepared as previously described. […]

SsGSK-3α/β = experiment: protein kinase assay, [γ-33P] ATP; assay type: biochemical, porcine; conditions: 15 μM ATP; GS-1 substrate; >10 = inhibitory but IC50 > 10 μM
Protocol: as §3, §4
GSK-3α/β (porcine brain, native) was assayed, as described for CDK5/p25 but in Buffer A and using a GSK-3 specific substrate (GS-1: […]pEDEEE) (pS stands for phosphorylated serine). GS-1 was synthesized by Millegen (Labege, France).

SsCK1δ/ε = experiment: protein kinase assay, [γ-33P] ATP; assay type: biochemical, porcine; conditions: 15 μM ATP; CKS peptide substrate; >10 = inhibitory but IC50 > 10 μM
Protocol: as §3, §4
Casein kinase 1 (CK1δ/ε) (porcine brain, native) was assayed with 0.67 µg of CKS peptide ([…]pSAYSITA).

[1] = system: panel of seven representative tumoral cell lines; experiment: in vitro inhibition of cell proliferation, whole panel; assay type: cell-based; conditions: all cell lines of the panel, without selectivity; read-out: IC50, moderate antitumor activities in all cell lines of the panel
Protocol: as §1
as §2, with “The toxicity test of the compounds on these cells was as follows: 2 × 10^3 cells for HCT-116 cells or 4 × 10^3 for the other cells were seeded in 96 multiwell plates in triplicate and left for 24 h for attachment, spreading and growing. Then, cells were exposed for 48 h to increasing concentrations of the compounds, ranging from 0.1 to 25 μM in a final volume of 120 μL of culture medium.” left out

Question: O=C1/C(=C/c2ccc3c(c2)OCCO3)SC(=S)N1CCCCNCc1ccc2c(c1)OCO2 [Compound 9i, (5Z)3-[4-(1,3-Benzodioxol-5-ylmethylamino)butyl]-5-(2,3-dihydro-1,4-benzodioxin-6-ylmethylene)-2-thioxo-1,3-thiazolidin-4-one] was tested. Which IC50 (diploid skin fibroblasts) did it give?
Answer: > 25 µM

Question: What about the viability at 25 µM (diploid skin fibroblasts) of the same compound?
Answer: 54%

Question: And the IC50 (HsCDK5/p25)?
Answer: 1.3 µM

Question: What about the IC50 (SsGSK-3α/β) of the same compound?
Answer: > 10 µM

Question: What about the IC50 (SsCK1δ/ε) of the same compound?
Answer: 5.4 µM

Question: With O=C1/C(=C/c2ccc3c(c2)OCO3)SC(=S)N1CCCCNCc1ccc2c(c1)OCO2 [Compound 9h, (5Z)3-[4-(1,3-Benzodioxol-5-ylmethylamino)butyl]-5-(1,3-benzodioxol-5-ylmethylene)-2-thioxo-1,3-thiazolidin-4-one] as the compound, how does the IC50 (diploid skin fibroblasts) read?
Answer: > 25 µM

Question: What about the viability at 25 µM (diploid skin fibroblasts) of the same compound?
Answer: 80%

Question: What about the IC50 (HsCDK5/p25) of the same compound?
Answer: 1.1 µM

Question: And the IC50 (SsGSK-3α/β)?
Answer: > 10 µM

Question: And the IC50 (SsCK1δ/ε)?
Answer: 6.6 µM

Question: And the IC50 [1]?
Answer: 10 to 17 µM

Question: COc1cc(/C=C2\SC(=S)N(CCCCNCc3ccc4c(c3)OCCO4)C2=O)ccc1O [Compound 9n, (5Z)3-[4-(2,3-Dihydro-benzo[1,4]dioxin-6-ylmethylamino)butyl]-5-(4-hydroxy-3-methoxybenzylidene)-2-thioxo-1,3-thiazolidin-4-one] was tested. Which IC50 (diploid skin fibroblasts) did it give?
Answer: > 25 µM

Question: What about the viability at 25 µM (diploid skin fibroblasts) of the same compound?
Answer: 86%

Question: What about the IC50 (SsGSK-3α/β) of the same compound?
Answer: > 10 µM

Question: And the IC50 (SsCK1δ/ε)?
Answer: 2 µM

Question: What does the source list for O=C1/C(=C/c2ccc(O)cc2)SC(=S)N1CCCCNCc1ccc2c(c1)OCO2 [Compound 9j, (5Z)3-[4-(1,3-Benzodioxol-5-ylmethylamino)butyl]-5-(4-hydroxy-benzylidene)-2-thioxo-1,3-thiazolidin-4-one]?
Answer: IC50 (diploid skin fibroblasts): > 25 µM; viability at 25 µM (diploid skin fibroblasts): 77%; IC50 (HsCDK5/p25): > 10 µM; IC50 (SsGSK-3α/β): > 10 µM; IC50 (SsCK1δ/ε): 1.4 µM
